# Laboratory results taken from article PMC11503492, “Activity-Based DNA-Encoded Library Screening for Selective Inhibitors of Eukaryotic Translation” (ACS Central Science, 2024).
# Columns and labels:
# [1] = test system: PCSK9[1:33]-GFP translation; test: Wheat germ lysate (WG) IVTT microplate activity assay, PCSK9[1:33]-GFP template; type: biochemical; conditions: WG IVTT
# From the text: (§1) A commercially available wheat germ lysate (WG) IVTT system was employed to assay translation inhibition. Translation activity was detected via a GFP reporter, and the assay was miniaturized to picoliter-scale microfluidic droplets (Figure 1A,B). […] PCSK9 and RPL27 were truncated to the first 33 and 32 amino acids, respectively (PCSK9[1:33] and RPL27[1:32]). The sequences contain distinct PF846 stall sites and were both fused to a GFP reporter. The GFP reporter and a frameshift mutant of PCSK9[1:33] (PCSK9-FS[1:33]), which mutates the nascent chain sequence while maintaining a nearly identical mRNA sequence, were included as negative controls.[13] […] Sequence sensitivity was further confirmed by an N-terminal deletion series of PCSK9[1:33]-GFP; deletion of N-terminal residues increasingly ablated PCSK9[1:33]-GFP translation sensitivity to PF846 (Figure 1D). The WG IVTT assay was miniaturized using a previously described microfluidic circuit modified for longer incubation times (Figure S1)[27] using PF846 as a positive control compound, and assay statistical quality was calculated (Z′=0.7) (Figure 1E). To confirm detection of translation inhibition from library beads, hygromycin B, a nonselective aminoglycoside translation inhibitor, was coupled to beads displaying a photocleavable linker (PC-HygB). UV irradiation releases hygromycin from the bead, allowing it to interact with the WG IVTT assay in the droplet. PC-HygB bead photocleavage supernatant inhibited PCSK9[1:33]-GFP translation both in a microplate assay and in microfluidic droplets (Figure 1F,G, S2). Assay statistical quality using PC-HygB positive control beads was similarly calculated (Z′ = 0.75, Figure 1H). […]
# (§2) 436 Microplate IVTT Assays
# (§3) 437 Wheat germ lysate IVTT plate assays were prepared as 5 µL reactions. Wheat germ lysate
# (§4) 438 (3 µL) was added to test compound or vehicle control (1 µL) in a 384-well black microplate
# (§5) 439 and the reaction was incubated (10 min, RT). Template (1 µL) was added and reaction
# (§6) 440 progress was immediately monitored (λex = 480 nm, λem = 530 nm, 27 °C, 2 h). Rela-
# (§7) 441 tive activity was calculated using the slope of fluorescence increase over time (at 15–30
# (§8) 442 min post reaction initiation) for compound samples relative to that of the DMSO vehicle
# 443 control. […]
# [2] = test system: PCSK9-FS[1:33]-GFP translation; test: WG IVTT microplate activity assay, PCSK9-FS[1:33]-GFP frameshift counter template; type: biochemical, wheat germ
# From the text: as §1, §2, §3, §4, §5, §6, §7, §8
# 443 control. All microplate experiments contained 25 ng/µL plasmid, except for assays with
# 445 respectively. HeLa lysate IVTT plate assays were prepared as 5.5 µL reactions. […]
# [3] = test system: RPL27[1:32]-GFP translation; test: WG IVTT activity assay, RPL27[1:32]-GFP template; type: biochemical, wheat germ
# From the text: A commercially available wheat germ lysate (WG) IVTT system was employed to assay translation inhibition. Translation activity was detected via a GFP reporter, and the assay was miniaturized to picoliter-scale microfluidic droplets (Figure 1A,B). […] PCSK9 and RPL27 were truncated to the first 33 and 32 amino acids, respectively (PCSK9[1:33] and RPL27[1:32]). The sequences contain distinct PF846 stall sites and were both fused to a GFP reporter. The GFP reporter and a frameshift mutant of PCSK9[1:33] (PCSK9-FS[1:33]), which mutates the nascent chain sequence while maintaining a nearly identical mRNA sequence, were included as negative controls.[13] […] The WG IVTT assay was miniaturized using a previously described microfluidic circuit modified for longer incubation times (Figure S1)[27] using PF846 as a positive control compound, and assay statistical quality was calculated (Z′=0.7) (Figure 1E). […] Assay statistical quality using PC-HygB positive control beads was similarly calculated (Z′ = 0.75, Figure 1H). […]
# 429 of encoding region identifiers was then determined using a UMI aggregation algorithm; […]
# 433 manually determined threshold (10) were discarded. […]
# (§9) 440 progress was immediately monitored (λex = 480 nm, λem = 530 nm, 27 °C, 2 h). […]
# (§10) 441 tive activity was calculated using the slope of fluorescence increase over time (at 15–30 […]
# Figure S11. […] Compound 8 (black) and PF846 (gray) were analyzed […]
# GFP reporter translation = test: WG IVTT activity assay, GFP reporter control; type: biochemical, wheat germ; conditions: negative control
# From the text: A commercially available wheat germ lysate (WG) IVTT system was employed to assay translation inhibition. Translation activity was detected via a GFP reporter, and the assay was miniaturized to picoliter-scale microfluidic droplets (Figure 1A,B). […] PCSK9 and RPL27 were truncated to the first 33 and 32 amino acids, respectively (PCSK9[1:33] and RPL27[1:32]). The sequences contain distinct PF846 stall sites and were both fused to a GFP reporter. The GFP reporter and a frameshift mutant of PCSK9[1:33] (PCSK9-FS[1:33]), which mutates the nascent chain sequence while maintaining a nearly identical mRNA sequence, were included as negative controls.[13] […] Sequence sensitivity was further confirmed by an N-terminal deletion series of PCSK9[1:33]-GFP; deletion of N-terminal residues increasingly ablated PCSK9[1:33]-GFP translation sensitivity to PF846 (Figure 1D). The WG IVTT assay was miniaturized using a previously described microfluidic circuit modified for longer incubation times (Figure S1)[27] using PF846 as a positive control compound, and assay statistical quality was calculated (Z′=0.7) (Figure 1E). […] Assay statistical quality using PC-HygB positive control beads was similarly calculated (Z′ = 0.75, Figure 1H). […]
# as §9, §10
# [4] = test system: PCSK9 expression in HepG2 cells; test: HepG2 cellular assay, PCSK9 Western blot; type: cell-based; conditions: 16 h treatment, 5 or 50 µM, triplicate, normalized to DMSO
# Experimental: Reaction buffer (1 µL) and template (0.5 µL) were added and reaction progress was
# Relative activity was cal-
# 450 culated using the slope of fluorescence increase over time (15–30 min post reaction initia-
# Gene blocks were purchased from IDT
# Digestion with Sgf I and PmeI allowed for
# Sequence-verified plasmids
# 460 were cloned into DH5α E. coli for standard large-scale DNA plasmid preparation.
# Gene blocks were purchased
# Digestion with NdeI and XhoI
# 470 (4.5 g/L high-glucose DMEM, 2 mM L-glutamine, 10% fetal bovine serum, 1% penicillin-
# Cells were lysed (100 µL RIPA buffer,
# Protein lysates (24 µg) were separated by denaturing polyacrylamide
# 480 PCSK9 rabbit monoclonal antibody, 5% BSA in PBS-T). The PCSK9 probed membrane
# HRP-labeled bands were visualized
# Figure S12. […] PCSK9 expression in HepG2 cells
# treated 16 h with PF846 or screening hit 8 (5 or 50 µM) or vehicle control (DMSO) was analyzed in triplicate
# (also on this page, place not known: S12894 GAPDH pro m DMSO 5 μM DMSO μM 5 μM 50 μM PCSK9 PF846 hit8 50)
# (1 picture or pasted object on this page, not shown here)
# [5] = test system: PCSK9[1:33]-GFP N-terminal deletions; test: WG IVTT end point assay of PCSK9[1:33]-GFP N-terminal deletions; type: biochemical, wheat germ; conditions: deletion of 15 or more N-terminal residues, 100 μM PF846
# Experimental: (C) PF846 dose–response IVTT activity assays of PCSK9[1:33]-GFP, PCSK9-FS[1:33]-GFP, RPL27[1:32]-GFP, and the GFP reporters and (D) end point assays (100 μM PF846) of PCSK9[1:33]-GFP N-terminal deletions were conducted to determine sensitivity to PF846 in WG IVTT (% activity relative to DMSO control).
# [6] = test system: MST1[1:39]-GFP translation; parameters: method as in PMID 28323820; conditions: cited from earlier work
smiles,measurement,setting,value
"O=C(c1ccc(-n2nnc3cccnc32)cc1)N(c1ncccc1Cl)[C@@H]1CCCNC1 [PF846, PF-06446846, reference compound]",inhibition of PCSK9[1:33]-GFP translation (in words),[1],inhibited the translation
same,IC50,"[1]; PCSK9[1:33]-GFP template, triplicate, ± standard deviation of the mean",3.9 ± 0.8 µM
same,IC50,"[2]; PCSK9-FS[1:33]-GFP template, triplicate, undetectable IC50 marked >300",> 300 µM
same,activity on PCSK9-FS[1:33]-GFP translation (in words),[2]; frameshift control,did not affect the translation
same,activity on RPL27[1:32]-GFP translation (in words),[3],inhibited the translation
same,activity on GFP reporter control translation (in words),GFP reporter translation,did not affect the translation
same,PCSK9 protein levels in HepG2 cells (in words),[4],significantly reduced
same,PF846 activity on N-terminal deletions of PCSK9[1:33]-GFP (in words),[5],completely eliminates PF846 activity
same,relative potency on MST1[1:39]-GFP versus PCSK9[1:33]-GFP and RPL27[1:32]-GFP translation (in words),[6],more potently inhibits
